Structures are written as SMILES. The source made the active and inactive calls.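 The calls were made as follows: active = compound that lowers ATP signal in parent HT1080 cells at potency within fivefold of its primary screen potency; inactive = the rest.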 Some results are limits rather than exact numbers.

This test relates to HT1080 viability, ATPLite luminescence, overnight. The test can be described thus: viability loss in HT1080 cells – cell-based, ATPLite luminescence, cytotoxicity control for MT1-MMP activation inhibitor project, SAR follow-up (AID 652267).

One may read the IC50 as the concentration that inhibits the measured activity by half. As to `CCn1c(=O)c(=O)[nH]c2cc(C(=O)NC3CCCc4ccccc43)ccc21` (stereo unspecified), the IC50 was 15.5 µM.

As to `CN1/C(=C/C=C/c2n(C)c3cc([N+](=O)[O-])c([N+](=O)[O-])cc3[n+]2C)C(C)(C)c2ccccc21`, the IC50 is 40.2 µM (inactive).

In the case of `COc1ccc(C)cc1Nc1nc(-c2c(C)[nH]c3ccccc23)cs1`, the IC50 is > 80 µM (inactive).

As to `O=Nc1c(-c2c(O)[nH]c3cc(Br)ccc23)[nH]c2ccccc12`, the IC50 is 36.9 µM (inactive). With `Cc1c(C(=O)OCC(=O)NCC2CCCO2)oc2ccccc12` (stereo unspecified) the figure was 30.3 µM (inactive).

Take `CN1/C(=C\C(=O)c2cncc(Br)c2)C(C)(C)c2ccccc21`: the IC50 was > 80 µM (inactive).

Source of the values: PubChem BioAssay AID652267 (Sanford-Burnham Center for Chemical Genomics, 2013).
